Bridge positions count the residues as written; N and C are the ends. Side chains are listed from the residue outwards. Peptide text beside a SMILES is read from it. * marks the point of attachment. Butanoyl(4-(4-I-phenyl)) = O=C(CCCc1ccc(I)cc1)*; PEG2 = NCCOCCOCCC(=O)O
Tests used:
KvLQT1/minK = KvLQT1/minK (Homo sapiens, UniProt P15382+P51787); experiment: Safetyscan47 Ion Channel, Blocker; format: cell-based; settings: for Emax: read-out: Max Response
integrin αvβ6 = integrin αvβ6 (Homo sapiens, UniProt P06756+P18564); experiment: ELISA competition assay, integrin αvβ6 binding to LAP; settings: αvβ6 IC50, ELISA competition vs LAP; mean, n ≥ 3
VEGFR2 = VEGFR2 (Homo sapiens, UniProt P35968); experiment: Safetyscan47 Kinases Binding, Inhibitor; settings: for Emax: read-out: Max Response
HRH2 = HRH2 (Homo sapiens, UniProt P25021); experiment: Safetyscan47 GPCR cAMP, Antagonist; format: cell-based; settings: for Emax: read-out: Max Response
carboxypeptidase Y = carboxypeptidase Y (Saccharomyces cerevisiae, UniProt P00729); experiment: Proteolysis test, carboxypeptidase Y treatment for 4 h, HPLC; format: in vitro ADME
CHRM2 = target: T1, CHRM2 (Homo sapiens, UniProt P08172); experiment: Safetyscan47 GPCR cAMP, Agonist; format: cell-based; settings: for Emax: read-out: Max Response
T1 sequence (P08172 1-466): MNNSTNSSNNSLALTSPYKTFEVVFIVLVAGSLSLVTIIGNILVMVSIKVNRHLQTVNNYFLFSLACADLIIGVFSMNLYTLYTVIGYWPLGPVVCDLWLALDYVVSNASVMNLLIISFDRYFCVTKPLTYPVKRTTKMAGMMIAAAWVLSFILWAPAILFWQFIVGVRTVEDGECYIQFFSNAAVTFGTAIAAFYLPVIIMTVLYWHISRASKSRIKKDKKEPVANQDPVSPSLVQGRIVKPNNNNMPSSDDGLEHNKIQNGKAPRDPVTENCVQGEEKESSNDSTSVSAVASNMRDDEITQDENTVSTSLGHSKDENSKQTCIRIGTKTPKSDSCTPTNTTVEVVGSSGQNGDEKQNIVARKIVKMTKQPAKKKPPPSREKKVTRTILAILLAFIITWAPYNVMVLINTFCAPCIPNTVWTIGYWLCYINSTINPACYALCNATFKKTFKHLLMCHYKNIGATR

integrin αvβ3 = integrin αvβ3 (Homo sapiens, UniProt P05106+P06756); experiment: ELISA competition assay, integrin αvβ3; format: binding
CNR2 = CNR2 (Homo sapiens, UniProt P34972); experiment: Safetyscan47 GPCR cAMP, Agonist; format: cell-based; settings: for Emax: read-out: Max Response
MAOA = target: T2, MAOA (Homo sapiens, UniProt P21397); experiment: Safetyscan47 Non-Kinase Enzymes Enzymatic, Inhibitor; format: biochemical; settings: for Emax: read-out: Max Response
T2 sequence (P21397 1-527): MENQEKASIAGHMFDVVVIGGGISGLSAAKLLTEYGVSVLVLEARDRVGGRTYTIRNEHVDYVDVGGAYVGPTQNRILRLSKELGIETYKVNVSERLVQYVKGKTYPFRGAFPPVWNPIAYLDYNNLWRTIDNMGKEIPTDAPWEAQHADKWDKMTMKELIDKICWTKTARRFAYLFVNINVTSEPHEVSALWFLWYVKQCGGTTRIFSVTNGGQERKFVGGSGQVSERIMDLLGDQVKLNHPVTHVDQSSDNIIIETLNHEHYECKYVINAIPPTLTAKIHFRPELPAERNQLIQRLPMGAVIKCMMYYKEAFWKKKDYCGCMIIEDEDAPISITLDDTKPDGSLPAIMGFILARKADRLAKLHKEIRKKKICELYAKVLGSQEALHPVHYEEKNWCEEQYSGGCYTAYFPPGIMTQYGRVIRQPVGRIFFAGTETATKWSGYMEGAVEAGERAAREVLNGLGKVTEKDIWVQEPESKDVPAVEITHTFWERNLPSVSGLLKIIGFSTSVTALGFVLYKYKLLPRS

AR = target: T3, AR (Homo sapiens, UniProt P10275); experiment: Safetyscan47 NHR Nuclear Translocation, Agonist; format: cell-based; settings: for Emax: read-out: Max Response
T3 sequence (P10275 1-920): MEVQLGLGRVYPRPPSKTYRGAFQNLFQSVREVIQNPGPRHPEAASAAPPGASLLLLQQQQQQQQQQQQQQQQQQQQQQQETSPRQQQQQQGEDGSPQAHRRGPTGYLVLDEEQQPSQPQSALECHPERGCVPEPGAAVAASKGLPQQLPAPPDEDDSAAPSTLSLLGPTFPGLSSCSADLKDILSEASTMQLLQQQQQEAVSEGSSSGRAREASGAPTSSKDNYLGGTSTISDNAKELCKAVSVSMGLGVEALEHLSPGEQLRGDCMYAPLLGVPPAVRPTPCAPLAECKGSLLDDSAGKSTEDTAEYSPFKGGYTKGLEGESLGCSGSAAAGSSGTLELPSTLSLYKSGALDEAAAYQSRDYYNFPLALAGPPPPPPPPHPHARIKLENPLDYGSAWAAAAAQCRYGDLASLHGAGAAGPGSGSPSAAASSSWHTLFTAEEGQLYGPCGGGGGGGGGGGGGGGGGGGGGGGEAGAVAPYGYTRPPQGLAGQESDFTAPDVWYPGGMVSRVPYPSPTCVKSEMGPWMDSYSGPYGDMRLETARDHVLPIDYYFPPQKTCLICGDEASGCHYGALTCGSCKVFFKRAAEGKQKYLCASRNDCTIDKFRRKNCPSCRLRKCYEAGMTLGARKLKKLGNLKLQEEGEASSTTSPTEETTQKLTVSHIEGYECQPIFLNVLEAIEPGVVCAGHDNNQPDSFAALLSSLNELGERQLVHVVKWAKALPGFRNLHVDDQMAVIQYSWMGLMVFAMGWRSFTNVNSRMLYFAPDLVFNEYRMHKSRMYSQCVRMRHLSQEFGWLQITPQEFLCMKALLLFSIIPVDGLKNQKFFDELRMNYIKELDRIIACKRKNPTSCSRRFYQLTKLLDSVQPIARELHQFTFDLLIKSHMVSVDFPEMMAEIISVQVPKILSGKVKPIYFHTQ

ADRB2 = ADRB2 (Homo sapiens, UniProt P07550); experiment: Safetyscan47 GPCR cAMP, Antagonist; format: cell-based; settings: for Emax: read-out: Max Response
GABAA = GABAA (Homo sapiens, UniProt P14867+P18507+P47870); experiment: Safetyscan47 Ion Channel, Blocker; format: cell-based; settings: for Emax: read-out: Max Response

SMILES	IC50 (KvLQT1/minK)	Emax (KvLQT1/minK)	IC50 (integrin αvβ6)	IC50 (VEGFR2)	Emax (VEGFR2)	IC50 (HRH2)	Emax (HRH2)	change in HPLC trace after proteolysis (carboxypeptidase Y)	EC50 (CHRM2)	Emax (CHRM2)	IC50 (integrin αvβ3)	EC50 (CNR2)	Emax (CNR2)	IC50 (MAOA)	Emax (MAOA)	EC50 (AR)	Emax (AR)	IC50 (ADRB2)	Emax (ADRB2)	IC50 (GABAA)	also measured
CC[C@H](C)[C@H](NC(=O)[C@H](CC(C)C)NC(=O)[C@H](CC(=O)O)NC(=O)CNC(=O)[C@H](CCCNC(=N)N)NC(=O)[C@@H](NC(=O)[C@H](Cc1ccccc1)NC(=O)[C@H](Cc1ccc(O)cc1)NC(=O)[C@@H]1CCC(=O)NCC(=O)NCC(=O)N[C@@H](CCCNC(=N)N)C(=O)NCC(=O)N[C@@H](Cc2c[nH]cn2)C(=O)N[C@@H](C(C)C)C(=O)N2CCC[C@H]2C(=O)N1)C(C)C)C(=O)N[C@@H](CO)C(=O)N[C@@H](Cc1ccccc1)C(=O)N[C@@H](Cc1ccc(O)cc1)C(=O)N[C@@H](CCCCN)C(=O)O [lassotide 36] (GGRGHVPEYFVRGDLISFYK-OH; lactam N-8)	> 45 µM	1.8%	0.012 µM	> 45 µM	6.3%	> 45 µM	2.58%	little or no change	> 45 µM	7.71%	0.343 µM	> 45 µM	6.08%	> 45 µM	10.8%	> 45 µM	0%	> 45 µM	8.93%	> 45 µM	Emax (GABAA): 0%
CC[C@H](C)[C@H](NC(=O)[C@H](CC(C)C)NC(=O)[C@H](CC(=O)O)NC(=O)CNC(=O)[C@H](CCCNC(=N)N)NC(=O)[C@@H](NC(=O)[C@H](Cc1ccccc1)NC(=O)[C@H](Cc1ccc(O)cc1)NC(=O)[C@@H]1CCC(=O)NCC(=O)NCC(=O)N[C@@H](CCCNC(=N)N)C(=O)NCC(=O)N[C@@H](Cc2c[nH]cn2)C(=O)N[C@@H](C(C)C)C(=O)N2CCC[C@H]2C(=O)N1)C(C)C)C(=O)N[C@@H](CO)C(=O)N[C@@H](Cc1ccccc1)C(=O)N[C@@H](Cc1ccc(O)cc1)C(=O)N[C@@H](CCCCNC(=O)CCOCCOCCNC(=O)CCCc1ccc(I)cc1)C(=O)O [lassotide 47] (GGRGHVPEYFVRGDLISFYK([PEG2-Butanoyl(4-(4-I-phenyl))])-OH; lactam N-8)	> 45 µM	24.8%	0.0032 µM	> 45 µM	2.92%	> 45 µM	30%	little or no change	> 45 µM	32.7%	1 µM	> 45 µM	1.85%	> 45 µM	0%	> 45 µM	0%	> 45 µM	32.8%	> 45 µM	Emax (GABAA): 0%

Source: publication doi:10.1101/2025.01.28.635346v1 (bioRxiv, 2025)
